According to paper PMC4823954, “From fighting depression to conquering tumors: a novel tricyclic thiazepine compound as a tubulin polymerization inhibitor” (Cell Death & Disease, 2016):

Experiments:
H460TaxR = test: Cell viability assay (sulforhodamine B); format: cell-based, human; details: for Resistance Folds: EC50 in H460TaxR cells divided by EC50 in H460 cells; for EC50: Homo sapiens, H460/TaxR
Method: (§1) All biological reagents and solvents were obtained from commercial suppliers and used as recommended. The human NSCLC cell line H460 and P-gp-overexpressing drug-resistant cell line H460TaxR were cultured in RPMI-1640 medium supplemented with 10% fetal bovine serum, 100 units/ml penicillin and […] streptomycin. The NHFB cell line NHFB was cultured in DMEM with the same supplements. All cells were maintained in a 37 °C incubator with 95% humidity and 5% CO2.
(§2) The cell viability was determined using the sulforhodamine B assay.[64] In brief, cells (4000 cells in 100 μl medium) were seeded in 96-well culture plates and incubated for 24 h. The cells were treated with the compounds or with an equal volume (0.1%) of DMSO for 72 h. The cell viability was calculated using the following formula: cell viability=Atreatment/Acontrol. The EC50 values were determined using the Sigma Plot 10.0 software package (Systat Software Inc., San Jose, CA, USA).

H460 = test: Cell viability assay (sulforhodamine B); format: cell-based, human; details: Homo sapiens
Method: as §1, §2

NHFB = test: Cell viability assay (sulforhodamine B); format: cell-based; details: Fibroblast; NHFB normal human fibroblasts, 72 h
Method: as §1, §2

H460 xenograft = test: NSCLC xenograft tumor growth inhibition; format: in vivo; details: H460 xenografted mice; PTX 10 mg/kg i.v., four doses every other day
Method: (§3) (a) The tumor volume was measured every other day. […] (b) Blood biochemical and hematological analyses.

H460TaxR xenograft = test: NSCLC xenograft tumor growth inhibition; format: in vivo; details: H460TaxR xenografted mice; PTX 10 mg/kg i.v., four doses every other day
Method: as §3

[1] = toxicity in xenografted mice; details: end of experiment, hematoxylin–eosin
Method: Five injections of vehicle and TBPT (30 or 60 mg/kg) were administered intravenously at days 1, 3, 5, 7 and 9 (arrows). Four injections of PTX (10 mg/kg) were administered intravenously at days 1, 3, 5 and 7. (a) The tumor volume was measured every other day. When the tumor volume in the solvent-treated group exceeded 1500 mm^3, the experiment was terminated. (b) Blood biochemical and hematological analyses. (c) The body weights of the mice were monitored every other day during the experiments. *P<0.05, Student's t-test with day 0, N=5
Figure 3 Histopathological examination of the major organs from TBPT or PTX-treated mouse tumor at the end of the experiments. The cross-sections of organs were stained with hematoxylin–eosin. […] The scale bars represent 50 μm and are uniform in each column
H460 and H460TaxR cells (5 × 10^6 cells in 100 μl PBS) were injected subcutaneously into the dorsal flank of each mouse. When the tumors reached volumes of 100 mm^3, the mice were divided randomly into four groups. The mice were treated every other day five times with intravenous injections of (1) vehicle (the solvent of TBPT: 60% PBS, 8% Cremophor EL, 8% EtOH, 12% poly propylene glycol and 12% PEG-400), (2) TBPT (30 mg/kg) or (3) TBPT (60 mg/kg). Another group was treated with PTX (10 mg/kg) every other day four times as the positive control. The tumor dimensions and body weights were measured every other day. The tumor volume was calculated according to a standard formula: volume=width^2 × length/2. The experiment was terminated and the mice were killed when the tumor volumes in the solvent-treated group exceeded 1500 mm^3. The mouse organs and blood were collected and used for hematoxylin–eosin staining and serum chemistry assay. TGI rates were assessed using the following formula: TGI=1− (Tt−T0)/(Ct−C0) × 100%. Tt and T0 indicate the tumor volumes of the treated group at days t and 0. Ct and C0 indicate the tumor volumes of the control group at days t and 0, respectively.

[2] = H460TaxR(+Rev), Reversan (P-gp inhibitor)

For `CC[C@]1(O)C[C@H]2CN(CCc3c([nH]c4ccccc34)[C@@](C(=O)OC)(c3cc4c(cc3OC)N(C=O)[C@H]3[C@@](O)(C(=O)OC)[C@H](OC(C)=O)[C@]5(CC)C=CCN6CC[C@]43[C@@H]65)C2)C1` [VCR, Vincristine], the “Resistance Folds” value (H460TaxR) was 78.4, the EC50 (H460TaxR; H460TaxR cells) was 1010 ± 101 nM and the EC50 (H460TaxR; [2]) was 9.1 ± 3.3 nM. It also gave an EC50 (H460; NCI-H460, H460 cells) of 12.9 ± 5.2 nM.

With `CC(=O)O[C@H]1C(=O)[C@@]2(C)[C@H]([C@H](OC(=O)c3ccccc3)[C@]3(O)C[C@H](OC(=O)[C@H](O)[C@@H](NC(=O)c4ccccc4)c4ccccc4)C(C)=C1C3(C)C)[C@]1(OC(C)=O)CO[C@@H]1C[C@@H]2O` [PTX, paclitaxel] the “Resistance Folds” value (H460TaxR) was 165.0, the EC50 (H460TaxR; 72 h, H460TaxR cells) was 822 nM and the EC50 (H460TaxR; H460TaxR cells) was 990 ± 190 nM. For the same compound, the EC50 (H460TaxR; [2]) was 4.4 ± 2.8 nM, the EC50 (H460; NCI-H460, H460 cells) was 6 ± 2.1 nM and the EC50 (NHFB) was 51 nM. For the same compound, the “tumor growth inhibition, TGI” value (H460 xenograft) was 66.2%, the “tumor growth inhibition, TGI” value (H460TaxR xenograft) was 42.0% and the “histopathological examination of the major organs” value [1] was “Hepatocyte necrosis”.

With `COc1cccc2c1C(=O)c1c(O)c3c(c(O)c1C2=O)C[C@@](O)(C(=O)CO)C[C@@H]3O[C@H]1C[C@H](N)[C@H](O)[C@H](C)O1` [DOX, Doxorubicin] the “Resistance Folds” value (H460TaxR) was 18.6, the EC50 (H460TaxR; 72 h, H460TaxR cells) was 2050 ± 690 nM and the EC50 (H460TaxR; [2]) was 170 ± 100 nM. For the same compound, the EC50 (H460; NCI-H460, 72 h, H460 cells, 72 h) was 110 ± 70 nM.
